From patent publication US20250170212A1, “COMPOSITIONS AND METHODS OF TREATING AMYOTROPHIC LATERAL SCLEROSIS (ALS) AND RELATED DISORDERS” (BIOINCEPT, LLC, priority 2022, published 2025)
“Also recorded” adds a separate entry of the source.

How the values were obtained:
[1] = system: transgenic SOD1^G93A mice; assay: Survival of ALS mice (Kaplan-Meier) after mGRPs transplantation with immunomodulatory drugs; assay type: in vivo, mouse; conditions: n=6 per group, mGRPs into cisterna magna, drug groups all with mGRPs: sPIF 1 mg/kg day -1 to 14, Tac 1 mg/kg daily to day 56, CB 25 mg/kg days 0, 2, 4, 6
From the text: B6.Cg-Tg (SOD1^G93A) 1Gur/J (Animalab, The Jackson Laboratory, Bar Harbor, ME, USA, RRID: IMSR JAX:004435) and SCID (Animalab, Charles River Laboratory, Wilmington, MA, USA, RRID: IMSR_JAX:001303) mice were obtained from JaxMice. SOD1^G93A animals were divided randomly into 5 groups and SCID animals were used as control.
mGRP cells were received as a gift from the Department of Radiology and Radiological Science, Johns Hopkins School of Medicine (Baltimore, MD, USA). Cells were isolated as previously described from spinal cords dissected from Luc+/PLP/GFP+ mice between E12.5 and E14 stage. […] The viability of the mGRPs was assessed with trypan blue exclusion and only suspensions with over 70% of cell viability were used for transplantation. […]
All quantifications were performed including the manual cell counts in a blinded manner. The NeuN and Ibal were counted as positive cells in the ROI (see above) as previously reported. The number of cells was determined by unbiased counting of positive cells. […] Differences between groups were analyzed using a repeated measure ANOVA model with a fixed effect for the group, of the time and a random intercept for the mouse. In a second, more explorative, approach for each group the time when the physical activity was first measured below a certain threshold was determined. […]

[2] = system: transgenic SOD1^G93A mice; assay: Hanging wire test (neuromuscular strength and coordination); assay type: in vivo, mouse; conditions: weekly from day 0, drug groups with mGRPs
Experimental: To assess the motor capacity of our treatment groups, motor skills assays were performed. Starting at day −7 SOD1^G93A mice (n=30) were trained in hanging wire. Animals were trained 3 times a week in 2 days interval. Weekly measurements were performed starting at day 0 until the end of the experiment. Hanging wire test was used to test neuromuscular strength and coordination. Briefly, mice were hung on a wire and had to catch the wire both by upper and lower limbs as well as tangle it with tail in order to move the whole distance towards a stick (repeated three times for each mouse and obtaining an average). Maximum points (1.5 point) were given when mice performed the task. […] A poor score (<0.66 points) was given when a mouse was unable to move the whole distance and the amount of time for which mice were able to hang on the wire (1 sec=0.016 points) was counted. […]
All quantifications were performed including the manual cell counts in a blinded manner. The NeuN and Ibal were counted as positive cells in the ROI (see above) as previously reported. The number of cells was determined by unbiased counting of positive cells. […] Differences between groups were analyzed using a repeated measure ANOVA model with a fixed effect for the group, of the time and a random intercept for the mouse. […] The statistical significance at p<0.05 was then determined.

## MVRIKPGSANKPSDD [sPIF]
[1]
  mice survival (Kaplan-Meier): seemed to be superior compared to other immune modulatory drugs; also recorded: seems superior but did not reach statistical significance
[2]
  motor performance in hanging wire test (early motor impairment): significant delay of early motor impairment; also recorded: significant improvement of motor outcome
